Experimental data taken from ChEMBL document CHEMBL1135457 (J Med Chem, 2002).

Columns and labels:
[1] = molecular target: T1, Glucocorticoid receptor (Homo sapiens) (UniProt P04150)
T1 sequence (whole entry): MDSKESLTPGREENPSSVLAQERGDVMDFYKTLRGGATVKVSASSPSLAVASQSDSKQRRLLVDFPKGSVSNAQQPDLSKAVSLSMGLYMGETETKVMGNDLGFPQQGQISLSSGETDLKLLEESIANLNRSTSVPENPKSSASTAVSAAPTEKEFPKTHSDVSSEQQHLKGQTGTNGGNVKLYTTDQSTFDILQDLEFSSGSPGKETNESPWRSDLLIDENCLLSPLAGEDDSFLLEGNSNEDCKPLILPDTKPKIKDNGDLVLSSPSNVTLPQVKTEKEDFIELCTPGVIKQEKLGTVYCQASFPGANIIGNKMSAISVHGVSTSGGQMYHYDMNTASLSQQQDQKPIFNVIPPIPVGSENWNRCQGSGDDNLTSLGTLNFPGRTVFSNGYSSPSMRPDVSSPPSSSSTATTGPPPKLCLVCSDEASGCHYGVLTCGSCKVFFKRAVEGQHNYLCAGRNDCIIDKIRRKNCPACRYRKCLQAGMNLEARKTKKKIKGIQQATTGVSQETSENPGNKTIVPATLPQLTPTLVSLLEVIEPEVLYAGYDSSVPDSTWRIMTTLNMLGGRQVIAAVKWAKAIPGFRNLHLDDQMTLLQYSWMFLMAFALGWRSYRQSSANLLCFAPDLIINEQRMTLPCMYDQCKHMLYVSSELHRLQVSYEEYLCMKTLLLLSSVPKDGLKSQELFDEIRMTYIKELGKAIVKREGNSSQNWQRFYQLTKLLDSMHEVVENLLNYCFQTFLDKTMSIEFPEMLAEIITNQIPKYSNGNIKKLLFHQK
Description: (§1) Antagonist activity as displacement of 10 nM [3H]dexamethasone from human Glucocorticoid receptor

Androgen receptor = molecular target: T2, Androgen receptor (Homo sapiens, UniProt P10275); test: Displacement of [3H]DHT from human Androgen receptor
T2 sequence (P10275 whole entry): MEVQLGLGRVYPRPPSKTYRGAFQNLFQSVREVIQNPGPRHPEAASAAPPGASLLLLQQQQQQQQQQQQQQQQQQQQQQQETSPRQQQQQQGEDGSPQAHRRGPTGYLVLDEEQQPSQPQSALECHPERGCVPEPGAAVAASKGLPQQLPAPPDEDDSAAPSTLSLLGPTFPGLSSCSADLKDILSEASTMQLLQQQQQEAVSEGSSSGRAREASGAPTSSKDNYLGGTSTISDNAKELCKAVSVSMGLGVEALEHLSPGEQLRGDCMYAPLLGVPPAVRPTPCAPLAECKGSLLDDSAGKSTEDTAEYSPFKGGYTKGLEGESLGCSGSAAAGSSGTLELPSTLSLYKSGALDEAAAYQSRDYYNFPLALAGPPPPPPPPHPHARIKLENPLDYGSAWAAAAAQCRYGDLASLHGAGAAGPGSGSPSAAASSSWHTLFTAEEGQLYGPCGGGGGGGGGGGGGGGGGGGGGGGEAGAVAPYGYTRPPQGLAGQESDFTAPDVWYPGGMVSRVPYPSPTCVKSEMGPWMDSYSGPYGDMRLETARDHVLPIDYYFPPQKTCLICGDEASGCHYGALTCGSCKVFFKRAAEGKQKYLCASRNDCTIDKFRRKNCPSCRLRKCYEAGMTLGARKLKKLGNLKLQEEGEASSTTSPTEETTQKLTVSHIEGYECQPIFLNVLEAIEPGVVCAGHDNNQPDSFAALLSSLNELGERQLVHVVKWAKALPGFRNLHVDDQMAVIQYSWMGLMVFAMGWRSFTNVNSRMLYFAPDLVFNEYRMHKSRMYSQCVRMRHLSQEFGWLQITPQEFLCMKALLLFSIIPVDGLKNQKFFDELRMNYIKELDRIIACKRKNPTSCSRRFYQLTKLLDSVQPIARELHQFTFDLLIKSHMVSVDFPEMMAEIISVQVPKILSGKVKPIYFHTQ

[2] = molecular target: T3, Mineralocorticoid receptor (Homo sapiens) (UniProt P08235); conditions: 1 uM
T3 sequence (whole entry): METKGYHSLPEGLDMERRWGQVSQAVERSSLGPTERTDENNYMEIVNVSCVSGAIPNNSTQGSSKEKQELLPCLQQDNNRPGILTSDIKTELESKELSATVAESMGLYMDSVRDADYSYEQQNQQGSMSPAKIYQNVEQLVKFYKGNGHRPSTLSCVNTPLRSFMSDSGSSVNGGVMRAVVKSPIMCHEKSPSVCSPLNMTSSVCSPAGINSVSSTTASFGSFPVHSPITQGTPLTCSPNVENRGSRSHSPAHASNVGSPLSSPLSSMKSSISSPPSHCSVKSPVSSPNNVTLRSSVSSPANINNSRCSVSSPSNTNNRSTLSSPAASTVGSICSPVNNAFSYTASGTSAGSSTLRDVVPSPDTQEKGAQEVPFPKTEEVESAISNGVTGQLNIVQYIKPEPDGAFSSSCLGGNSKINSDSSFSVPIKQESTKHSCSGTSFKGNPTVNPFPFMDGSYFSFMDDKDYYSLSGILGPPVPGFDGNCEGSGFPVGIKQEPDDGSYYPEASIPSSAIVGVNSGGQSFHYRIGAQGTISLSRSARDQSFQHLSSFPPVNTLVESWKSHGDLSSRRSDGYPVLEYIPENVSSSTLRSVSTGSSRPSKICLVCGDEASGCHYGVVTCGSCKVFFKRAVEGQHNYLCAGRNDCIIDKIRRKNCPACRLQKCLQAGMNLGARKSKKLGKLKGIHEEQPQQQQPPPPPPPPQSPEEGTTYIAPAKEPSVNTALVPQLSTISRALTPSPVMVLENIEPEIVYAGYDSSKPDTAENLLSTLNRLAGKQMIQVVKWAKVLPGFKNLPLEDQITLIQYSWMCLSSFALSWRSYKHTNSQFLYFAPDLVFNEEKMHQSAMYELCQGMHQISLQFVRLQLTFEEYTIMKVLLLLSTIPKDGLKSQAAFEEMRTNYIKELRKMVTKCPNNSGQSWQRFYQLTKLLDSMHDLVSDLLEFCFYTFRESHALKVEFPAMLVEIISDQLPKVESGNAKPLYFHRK
Description: Antagonist activity against human mineralocorticoid receptor as displacement of radioligand, percent inhibition at 1 uM

[3] = molecular target: T1, Glucocorticoid receptor (Homo sapiens); remark: listed apart in the source
Description: as §1

[4] = molecular target: T3, Mineralocorticoid receptor (Homo sapiens)
Description: Antagonist activity against human mineralocorticoid receptor as displacement of radioligand

Kif [1] [nM]	SMILES	Ki (Androgen receptor) [nM]	inhibition [2] [%]	Kif [3] [nM]	Kif [4] [nM]
10	CC#C[C@@]1(O)CC[C@@]2(Cc3ccccc3)c3ccc(O)cc3CC[C@@H]2C1				
	O=C1CC[C@@]2(Cc3ccccc3)c3ccc(O)cc3CC[C@@H]2C1	1300			
	CC#C[C@]1(O)CCC2C3CCC4=CC(=O)CC[C@]4(Cc4ccc(C)cc4)C3=CC[C@@]21C (some centres undefined)	90	0	12	> 1000
	Oc1ccc2c(c1)CC[C@@H]1C[C@@](O)(C#CCl)CC[C@@]21Cc1ccccc1	130		4.1	> 1000
